Where “and” joins values, the source holds several entries; their conditions need not be identical. Equal entries are not always repeated. Where two headings read alike, the source gives them in different places.

The target in assay [1] is T1, canine TRPM8 (Canis lupus familiaris, UniProt Q1A7N1).
T1 construct: expressed in transfected cells
The assay can be described thus: In vitro canine TRPM8 functional assay (Ca2+-sensitive dye, FLIPR/FDSS, icilin activation). Type of assay: cell-based. Conditions: HEK293 cells expressing canine TRPM8, icilin activation; for % I (0.5 μM): 0.5 μM compound; for IC50: eight-point dose-response; for inhibition at 1 µM: HEK293, read-out: % I (1 μM), 1 μM compound; for % I (1 μM): 1 μM compound. In short, it runs like this: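 Icilin challenge (final concentration producing ~80% of maximal response) followed a 5 min compound exposure in canine TRPM8-HEK293 cells dye-loaded with Calcium 3. Intracellular Ca2+ was read on FLIPR/FDSS. EC50 and IC50 values came from nonlinear sigmoidal dose-response fits of basal-subtracted, percent-of-maximum data averaged over quadruplicates.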

In assay [2] the test system is Sprague-Dawley rats. The assay can be described thus: CFA-induced paw radiant heat hypersensitivity. The format is in vivo, rat. Conditions: for % Reversal: rat, 30 mg/kg p.o.; for inhibition in vivo at 30 mg/kg / ED50: Rattus norvegicus; for inhibition in vivo at 30 mg/kg: read-out: % Reversal. The method, then: Intraplantar injection of Complete Freund's Adjuvant (CFA) in rodents results in a long-lasting inflammatory reaction, characterized by a pronounced hypersensitivity to both thermal and mechanical stimuli. This hypersensitivity peaks between 24-72 hours following injection and can last for several weeks. […] This paradigm also may be conducted with a multiple dosing or a prophylactic dosing regime designed to alter the course of hyperalgesia development. This test predicts the analgesic, anti-allodynic and antihyperalgesic effect of numerous effective clinical agents, including NSAIDS such as acetaminophen, aspirin and ibuprofen, and opioids such as morphine.
Each rat was placed in a test chamber on a warm glass surface and allowed to acclimate for approximately 10 minutes. A radiant thermal stimulus (beam of light) was then focused through the glass onto the plantar surface of each hind paw in turn. The thermal stimulus was automatically shut off by a photoelectric relay when the paw was moved or when the cut-off time was reached (20 seconds for radiant heat at ˜5 Amps). An initial (baseline) response latency to the thermal stimulus was recorded for each animal prior to the injection of CFA. Twenty-four hours following intraplantar CFA injection, the response latency of the animal to the thermal stimulus was then re-evaluated and compared to the animal's baseline response time. […] Immediately following the post-CFA latency assessment, test compound or vehicle (usually Solutol, hydroxypropyl methylcellulose, hydroxypropyl beta-cyclodextrin or PEG-400) was administered i.p. or p.o. to rats. […] The percent reversal (% R) of hypersenstivitiy was calculated according to the following formula:
% Reversal=(Treatment Response-CFA Response)/(Baseline Response-CFA Response)×100.

Setting [3] is: HEK293, read-out: % I (0.5 μM), 0.5 μM compound.
[4] abbreviates: HEK293, 0.5 μM compound, read-out: % I (0.5 μM).

T1 sequence (Q1A7N1 1-1104): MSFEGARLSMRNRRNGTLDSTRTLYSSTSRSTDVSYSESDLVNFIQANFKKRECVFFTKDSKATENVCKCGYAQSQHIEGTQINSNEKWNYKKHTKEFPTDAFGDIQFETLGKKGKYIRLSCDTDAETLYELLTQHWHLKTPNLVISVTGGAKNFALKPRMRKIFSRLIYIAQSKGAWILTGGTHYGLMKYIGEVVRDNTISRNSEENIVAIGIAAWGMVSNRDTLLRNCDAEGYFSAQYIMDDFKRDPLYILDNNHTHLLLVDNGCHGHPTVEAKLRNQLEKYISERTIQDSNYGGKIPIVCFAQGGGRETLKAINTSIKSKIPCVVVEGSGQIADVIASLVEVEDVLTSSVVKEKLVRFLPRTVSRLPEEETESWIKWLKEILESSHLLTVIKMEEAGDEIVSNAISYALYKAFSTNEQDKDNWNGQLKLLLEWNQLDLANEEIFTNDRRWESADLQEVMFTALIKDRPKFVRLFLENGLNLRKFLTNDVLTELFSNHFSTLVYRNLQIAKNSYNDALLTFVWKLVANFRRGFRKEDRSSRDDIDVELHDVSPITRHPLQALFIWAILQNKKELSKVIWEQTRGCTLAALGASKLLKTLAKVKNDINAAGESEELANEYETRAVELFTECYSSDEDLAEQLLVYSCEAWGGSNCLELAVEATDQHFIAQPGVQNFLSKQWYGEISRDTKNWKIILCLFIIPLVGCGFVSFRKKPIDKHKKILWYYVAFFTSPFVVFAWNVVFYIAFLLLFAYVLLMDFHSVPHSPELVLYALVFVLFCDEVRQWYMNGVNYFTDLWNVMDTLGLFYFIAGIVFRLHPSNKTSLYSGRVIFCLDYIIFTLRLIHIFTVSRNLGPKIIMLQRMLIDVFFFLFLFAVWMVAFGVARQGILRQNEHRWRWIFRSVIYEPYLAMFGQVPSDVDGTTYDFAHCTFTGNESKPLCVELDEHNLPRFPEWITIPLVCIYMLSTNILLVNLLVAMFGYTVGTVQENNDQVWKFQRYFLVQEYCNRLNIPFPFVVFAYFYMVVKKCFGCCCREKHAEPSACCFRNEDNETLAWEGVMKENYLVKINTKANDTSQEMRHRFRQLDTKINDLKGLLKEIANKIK

For the molecule `CCOP(=O)(OCC)C(Cc1ccc(F)c(Cl)c1)c1sc2ccccc2c1Br` (racemic) [Cpd 244], the “% I (0.5 μM)” value in assay [1] is on record as 103%. Further, the half-maximal inhibitory concentration (IC50) (in general, the midpoint of a concentration-inhibition curve) in assay [1] (read-out: IC50) was found to be 0.028 µM. The “% Reversal” value in assay [2] (time 2 h (printed 2 h or 2)) is given as 45%.
On to `CCOP(=O)(OCC)C(Cc1ccc(F)c(C(F)(F)F)c1)c1sc2ccccc2c1Cl` (racemic) [Cpd 298], for which the “% I (0.5 μM)” value in assay [1] is reported as 99%. In assay [1] (read-out: IC50), the concentration for half-maximal inhibition (IC50) came to 0.085 µM. Also, the “% Reversal” value in assay [2] (time 1 h) stood at 20%.
Taken in the same sequence, the figures for `CCOP(=O)(OCC)C(Cc1ccc(SC)cc1)c1sc2ccccc2c1Cl` (racemic) [Cpd 299] were 101%, 0.141 µM and 23%.
As for `CC(C)OP(=O)(OC(C)C)C(Cc1ccc(F)c(F)c1)c1sc2ccccc2c1Cl` (stereo not shown) [Cpd 12, [1-(3-Chloro-benzo[b]thiophen-2-yl)-2-(3,4-difluoro-phenyl)-ethyl]-phosphonic acid diisopropyl ester], in assay [1], the inhibition at 1 µM stood at 100%. The IC50 in assay [1] (IC50 (μM)) was 0.043 µM and 0.13 µM. Also, the inhibition in vivo at 30 mg/kg in assay [2] (ip, 1 h) was 105%.
In the case of `CCOP(=O)(OCC)C(Cc1ccc(F)c(F)c1)c1sc2ccccc2c1Br` (stereo not shown) [Cpd 127, [1-(3-Bromo-benzo[b]thiophen-2-yl)-2-(3,4-difluoro-phenyl)-ethyl]-phosphonic acid dethyl ester], the inhibition at 1 µM in assay [1] amounted to 100%. In assay [1] (IC50 (μM)), this molecule displayed an IC50 of 0.052 µM. The ED50 (in general, the midpoint of the dose-response relation) in assay [2] (po) came to 5.2 mg/kg; in assay [2] (po, 1 h, read-out: oral ED50) it was 5.2 mg/kg. Moreover, the inhibition in vivo at 30 mg/kg in assay [2] (po, 1 h) was 88%.
As to `CCOP(=O)(OCC)C(Cc1cccc(Cl)c1)c1sc2ccccc2c1Br` (stereo not shown) [Cpd 137, [1-(3-Bromo-benzo[b]thiophene-2-yl)2-(3-chloro-phenyl)-ethyl]-phosphonic acid diethyl ester], in assay [1] (setting [3]), the inhibition at 0.5 µM amounted to 102%. The IC50 in assay [1] (IC50 (μM)) is 0.024 µM. For the same molecule, the inhibition in vivo at 30 mg/kg in assay [2] (po, 1 h) was found to be 34%.
In the case of `CC(C)OP(=O)(OC(C)C)C(Cc1ccc(Cl)c(F)c1)c1sc2ccccc2c1Br` (stereo not shown) [Cpd 190], the “% I (0.5 μM)” value in assay [1] was determined as 104%. In addition, the IC50 in assay [1] (read-out: IC50) stood at 0.102 µM. The “% Reversal” value in assay [2] (time 1 h) is 45%.
Consider `CC(C)OP(=O)(OC(C)C)C(Cc1ccc(F)cc1)c1sc2ccccc2c1Br` (stereo not shown) [Cpd 197], for which, in assay [1], the “% I (0.5 μM)” value was found to be 102% and the “% I (1 μM)” value worked out at 100%. The “% Reversal” value in assay [2] (time 2 h (printed 2 h or 2)) came to 23%.
`CCOP(=O)(OCC)C(Cc1cccc(O)c1)c1sc2ccccc2c1Br` (stereo not shown) [Cpd 316]: the “% I (0.5 μM)” value in assay [1] is 103% and 104%. Besides, the half-inhibitory concentration (IC50) in assay [1] (read-out: IC50) was 0.032 µM and 0.02 µM.
In the case of `COc1cccc(CC(c2sc3ccccc3c2Br)P(=O)(OC(C)C)OC(C)C)c1` (stereo not shown) [Cpd 317], the “% I (0.5 μM)” value in assay [1] stood at 102%. Further, the IC50 in assay [1] (read-out: IC50) stood at 0.021 µM.
Regarding `CCOP(=O)(OCC)C(Cc1cccc(N)c1)c1sc2ccccc2c1Br` (stereo not shown) [Cpd 318, [2-(3-Amino-phenyl)-1-(3-bromo-benzo[b]thiophen-2-yl)-ethyl]-phosphonic acid diethyl ester], in assay [1] (setting [3]), the inhibition at 0.5 µM came to 100%. This molecule yielded an IC50 in assay [1] (IC50 (μM)) of 0.211 µM.
Take `CCOP(=O)(OCC)C(Cc1cc(OC)cc(OC)c1)c1sc2ccccc2c1Br` (stereo not shown) [Cpd 319]: the “% I (0.5 μM)” value in assay [1] amounted to 103%. Moreover, the IC50 in assay [1] (read-out: IC50) stood at 0.026 µM.
Consider `CCOP(=O)(OCC)C(Cc1ccccc1OC)c1sc2ccccc2c1Br` (stereo not shown) [Cpd 320], for which, in assay [1], the “% I (0.5 μM)” value came to 103%. Further, the IC50 in assay [1] (read-out: IC50) amounted to 0.028 µM.
Taken in the same sequence, the figures for `CCOP(=O)(OCC)C(Cc1ccc(OC)cc1)c1sc2ccccc2c1Br` (stereo not shown) [Cpd 321] were 102% and 0.043 µM.
For `CCOP(=O)(OCC)C(Cc1cc(O)cc(O)c1)c1sc2ccccc2c1Br` (stereo not shown) [Cpd 322], in assay [1], the “% I (0.5 μM)” value turned out to be 45%.
For `CCOP(=O)(OCC)C(Cc1ccccc1O)c1sc2ccccc2c1Br` (stereo not shown) [Cpd 323], the “% I (0.5 μM)” value in assay [1] is 104%. Moreover, the 50% inhibitory concentration (IC50) in assay [1] (read-out: IC50) turned out to be 0.009 µM.
On to `CCOP(=O)(OCC)C(Cc1ccc(O)cc1)c1sc2ccccc2c1Br` (stereo not shown) [Cpd 324], for which the “% I (0.5 μM)” value in assay [1] was 54%.
Turning to `CC(C)OP(=O)(OC(C)C)C(Cc1cccc(O)c1)c1sc2ccccc2c1Br` (stereo not shown) [Cpd 325], in assay [1], the “% I (0.5 μM)” value was 97%. Moreover, in assay [1] (read-out: IC50), the IC50 was found to be 0.01 µM.
As for `COc1ccc(CC(c2sc3ccccc3c2Br)P(=O)(OC(C)C)OC(C)C)cc1C(F)(F)F` (stereo not shown) [Cpd 326], in assay [1], the “% I (0.5 μM)” value is 103% and 102%. For the same molecule, the IC50 in assay [1] (read-out: IC50) was 0.086 µM and 0.051 µM.
As to `CC(C)OP(=O)(OC(C)C)C(Cc1ccc(F)c(C(F)(F)F)c1)c1c(Br)c2ccccc2n1C(=O)OC(C)(C)C` (stereo not shown) [Cpd 327, 3-Bromo-2-[1-(diisopropoxy-phosporyl)-2-(4-fluoro-3-trifluoromethyl-phenyl)-ethyl]-indole-1-carboxylic acid tert-butyl ester], in assay [1], the “% I (0.5 μM)” value is reported as 44%.
Regarding `CC(C)OP(=O)(OC(C)C)C(Cc1ccc(F)c(C(F)(F)F)c1)c1c(Br)c2ccccc2n1C` (stereo not shown) [Cpd 328, [1-(3-Bromo-1-methyl-1H-indol-2-yl)-2-(4-fluoro-3-trifluoromethyl-phenyl)-ethyl]-phosphonic acid diisopropyl ester], in assay [1] (setting [4]), the inhibition at 0.5 µM came out at 102%. Moreover, the IC50 in assay [1] (read-out: IC50) came to 0.193 µM.
For the molecule `CC(C)OP(=O)(OC(C)C)C(Cc1ccc(F)c(C(F)(F)F)c1)c1c(Br)c2ccccc2n1S(C)(=O)=O` (stereo not shown) [Cpd 330, [1-(3-Bromo-1-methanesulfonly-1H-indol-2-yl)-2-(4-fluoro-3-trifluoromethyl-phenyl)-ethyl]-phosphonic acid diisopropyl ester], the IC50 in assay [1] (read-out: IC50) amounted to 0.137 µM.
In the case of `CC(=O)n1c(C(Cc2ccc(F)c(C(F)(F)F)c2)P(=O)(OC(C)C)OC(C)C)c(Br)c2ccccc21` (stereo not shown) [Cpd 331], the “% I (0.5 μM)” value in assay [1] worked out at 101%. The half-inhibitory concentration (IC50) in assay [1] (read-out: IC50) was 0.152 µM.
`CCCS(=O)(=O)n1c(C(Cc2ccc(F)c(C(F)(F)F)c2)P(=O)(OC(C)C)OC(C)C)c(Br)c2ccccc21` (stereo not shown) [Cpd 332]: the “% I (0.5 μM)” value in assay [1] worked out at 72%.
As to `CC(C)OP(=O)(OC(C)C)/C(=C/c1ccc(F)c(F)c1)c1cc2ccccc2s1` [Cpd 333, (E)-[1-Benzo[b]thiophen-2-yl-2-(3,4-difluoro-phenyl)-vinyl]-phosphonic acid diisopropyl ester], in assay [1] (setting [4]), the inhibition at 0.5 µM turned out to be 95%. The half-maximal inhibitory concentration (IC50) in assay [1] (read-out: IC50) turned out to be 0.176 µM.
Taken in the same sequence, the figures for `CC(C)OP(=O)(OC(C)C)/C(=C/c1ccc(F)c(F)c1)c1sc2ccccc2c1Br` [Cpd 334, (E)-[1-(3-Bromo-benzo[b]thiophen-2-yl)-2-(3,4-difluoro-phenyl)-vinyl]-phosphonic acid diisopropyl ester] were 97% and 0.11 µM.
Consider `CC(C)OP(=O)(OC(C)C)C(Cc1cc(C(F)(F)F)ccc1F)c1sc2ccccc2c1Br` (stereo not shown) [Cpd 335], for which the “% I (0.5 μM)” value in assay [1] came out at 102%. For the same molecule, the IC50 in assay [1] (read-out: IC50) came to 0.035 µM. Besides, the “% Reversal” value in assay [2] (time 1 h) is recorded as 0%.
On to `CC(C)OP(=O)(OC(C)C)C(Cc1ccc(C(F)(F)F)cc1)c1sc2ccccc2c1Br` (stereo not shown) [Cpd 336], for which the “% I (0.5 μM)” value in assay [1] was determined as 102%. The IC50 in assay [1] (read-out: IC50) came out at 0.043 µM. Further, in assay [2] (time 1 h), the “% Reversal” value is recorded as 64%.
Take “(R)-[1-(3-Bromo-benzo[b]thiophen-2-yl)-2-(4-fluoro-phenyl)-ethyl]-phosphonic acid diisopropyl ester [Cpd 240]”: the “% I (0.5 μM)” value in assay [1] is 98% and 77%.
The same measure, in the same setting: under “(R)-[1-(3-Bromo-benzo[b]thiophen-2-yl)-2-(4-trifluoromethoxy-phenyl)-ethyl]-phosphonic acid diisopropyl ester [Cpd 237]” stands 96% and 70%.
Turning to “[2-(3,4-Difluoro-phenyl)-1-(3-methyl-benzo[b]thiophene-2-yl)-ethyl]-[3-(4-methoxy-phenyl)-propyl]-phosphonic acid ethyl ester [Cpd 135]”, the “% I (1 μM)” value in assay [1] was 90%. The concentration for half-maximal inhibition (IC50) in assay [1] (read-out: IC50) came to 0.41 µM.
For the molecule “[2-(3,4-Difluoro-phenyl)-1-(3-methyl-benzo[b]thiophene-2-yl)-ethyl]-[3-(4-methoxy-phenyl)-propyl]-phosphonic acid ethyl ester [Cpd 136]”, the “% I (1 μM)” value in assay [1] is 91%. Further, the IC50 in assay [1] (read-out: IC50) was 0.42 µM.
Consider “[2-(3,4-Difluoro-phenyl)-1-(3-methyl-benzo[b]thiophene-2-yl)-ethyl]-methyl-phosphonic acid ethyl ester [Cpd 30]”, for which the “% I (1 μM)” value in assay [1] was 100% and 99%. In addition, in assay [1] (read-out: IC50), the half-maximal inhibitory concentration (IC50) is 0.12 µM and 0.2 µM.
“[2-(3,4-Difluoro-phenyl)-1-(3-methyl-benzo[b]thiophene-2-yl)-ethyl]-methyl-phosphonic acid ethyl ester [Cpd 106]”: the “% I (1 μM)” value in assay [1] was 32%. In assay [1] (read-out: IC50), the concentration for half-maximal inhibition (IC50) was found to be 1.26 µM.

Values taken from patent US20080287398A1, “COLD MENTHOL RECEPTOR-1 ANTAGONISTS” (priority 2007, published 2008).
